From patent US20110065632A1, “PHARMACEUTICAL COMPOSITIONS OF SOMATOSTATIN-DOPAMINE CONJUGATES” (priority 2008, published 2011)
Where two headings read alike, the source gives them in different places. Bridge positions count the residues as written; N and C are the ends. Square brackets hold non-standard residues; d marks the D form. Peptide text beside a SMILES is read from it. * marks the point of attachment. X1 = CCCN1C[C@H](CSCC(=O)*)C[C@@H]2c3cccc4[nH]cc(c34)C[C@H]21; Tyr(3-I) = N[C@@H](Cc1ccc(O)c(I)c1)C(=O)O; Dopa = N[C@@H](Cc1ccc(O)c(O)c1)C(=O)O; Abu = CC[C@H](N)C(=O)O

Legend:
[1] = target: hDA2; assay: Dopamine-2 receptor radioligand binding assay; parameters: species or system human; details: [3H]spiperone
Method: Specificity and selectivity for the dopamine-2 receptor of the dopamine analogues used to synthesize the somatostatin-dopamine chimers may be determined by a radioligand binding assay as follows.
Crude membranes were prepared by homogenization of frozen rat corpus striatum (Zivic Laboratories, Pittsburgh, Pa., USA) in 20 mL of ice-cold 50 mM Tris-HCl with a Brinkman Polytron cell disrupter (setting 6, 15 sec). Buffer was added to obtain a final volume of 40 mL, and the homogenate was centrifuged in a Sorval SS-34 rotor at 39,000 g for 10 minutes at 0-4° C. The resulting supernatant was decanted and discarded. The pellet was rehomogenized in ice-cold buffer, pre-incubated at 37° C. for 10 min, diluted, and centrifuged as before. The final pellet was resuspended in buffer and held on ice for the receptor binding assay.
For assay, aliquots of the washed membrane preparations and test compounds were incubated for 15 minutes (37° C.) with 0.25 nM [^3HI]spiperone (16.5 Ci.mmol, New England Nuclear, Boston, Mass., USA) in 50 mM Tris HCl, 120 mM NaCl, 5 mM KCl, 2 mM CaCl2, 1 mM MgCl2. The final assay volume was 1.0 mL. The incubations were terminated by rapid filtration through GF/B glass fibre filters using a Brandel filtration manifold. Each tube and filter was then washed three times with 5-mL aliquots of ice-cold buffer. Specific binding was defined as the total radioligand bound minus that bound in the presence of 1000 nM (+) butaclamol.
(§1) Using the discussed assays, the inhibition constants (Ki) for the five human somatostatin receptors (hSSTR1-hSSTR5) and the dopamine-2 receptor (hUTII and hDA2) were measured for the exemplified somatostatin-dopamine conjugates, as follows: […]

[2] = target: T1, hsst5 (Homo sapiens, UniProt P35346); assay: Somatostatin receptor radioligand binding assay, hsst5; details: CHO-K1 membranes, [125I-Tyr11]SS-14
T1 construct: expressed in transfected cells
T1 sequence (P35346 whole entry): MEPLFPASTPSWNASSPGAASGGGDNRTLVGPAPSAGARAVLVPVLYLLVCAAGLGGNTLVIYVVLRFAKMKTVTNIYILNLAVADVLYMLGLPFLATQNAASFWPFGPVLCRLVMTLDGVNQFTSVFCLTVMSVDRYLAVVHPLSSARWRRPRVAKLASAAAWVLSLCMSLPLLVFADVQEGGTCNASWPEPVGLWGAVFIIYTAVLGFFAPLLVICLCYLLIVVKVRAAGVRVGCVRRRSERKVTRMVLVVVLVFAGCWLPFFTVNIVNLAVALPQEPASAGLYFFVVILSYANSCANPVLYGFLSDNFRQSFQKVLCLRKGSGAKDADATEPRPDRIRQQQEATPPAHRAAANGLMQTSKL
Method: (§2) Specificity and selectivity of the somatostatin analogues used to synthesize the somatostatin-dopamine chimers were determined by a radioligand binding assay on CHO-K1 cells stably transfected with each of the SSTR subtypes, as follows. Somatostatin analogs are also described in U.S. Patent Application Publication No. 02210006790. The complete coding sequences of genomic fragments of the SSTR 1 (e.g., Genbank accession No. M81829), SSTR 2 (e.g., Genbank accession No. M81830), SSTR 3 (e.g., Genbank accession No. L07062), and SSTR 4 (e.g., Genbank accession No. AL049651) genes and a cDNA clone for SSTR 5 (e.g., Genbank accession No. D16827) was subcloned into the mammalian expression vector pCMV (Life Technologies, Milano, Italy). Other SSTR sequences are known to the skilled artisan. Clonal cell lines stably expressing SSTR's 1-5 were obtained by transfection into CHO-K1 cells (ATCC, Manassas, Va., USA) using the calcium phosphate co-precipitation method (Davis L, et al., 1994 In: Basic methods in Molecular Biology, 2nd edition, Appleton & Lange, Norwalk, Conn., USA: 611-646). The plasmid pRSV-neo (ATCC) was included as a selectable marker. Clonal cell lines were selected in RPMI 1640 media containing 0.5 mg/mL of G418 (Life Technologies, Milano, Italy), ring cloned, and expanded into culture.
(§3) Membranes for in vitro receptor binding assays were obtained by homogenizing the CHO-K1 cells expressing the SSTR's subtypes in ice-cold 50 mM Tris-HCl and centrifuging twice at 39,000 g (10 min), with an intermediate resuspension in fresh buffer. The final pellets were resuspended in 10 mM Tris-HCl for assay.
(§4) For the SSTR 1, 3, 4, and 5 assays, aliquots of the membrane preparations were incubated 90 minutes at 25° C. with 0.05 nM [^125I-Tyr11]SS-14 in 50 mM HEPES (pH 7.4) containing 10 mg/mL BSA, 5 mM MgCl2, 200 KIU/mL Trasylol, 0.02 mg/mL bacitracin, and 0.02 mg/mL phenylmethylsuphonyl fluoride. The final assay volume was 0.3 mL.
(§5) For the SSTR 2 assay, 0.05 nM [^125I]MK-678 was employed as the radioligand and the incubation time was 90 minutes at 25° C. The incubations were terminated by rapid filtration through GF/C glass microfiber filters (Whatman Co.) (pre-soaked in 0.3% polyethylenimine) using a BRANDEL filtration manifold. Each tube and filter was washed three times with 5 mL aliquots of ice-cold buffer. Specific binding was defined as the total radioligand bound minus that bound in the presence of 1000 nM SS-14 for SSTR 1, 3, 4, and 5, or 1000 nM MK-678 for SSTR2.

[3] = target: T2, hsst2 (Homo sapiens, UniProt P30874); assay: Somatostatin receptor radioligand binding assay, hsst2; details: CHO-K1 membranes, [125I]MK-678
T2 construct: expressed in transfected cells
T2 sequence (P30874 whole entry): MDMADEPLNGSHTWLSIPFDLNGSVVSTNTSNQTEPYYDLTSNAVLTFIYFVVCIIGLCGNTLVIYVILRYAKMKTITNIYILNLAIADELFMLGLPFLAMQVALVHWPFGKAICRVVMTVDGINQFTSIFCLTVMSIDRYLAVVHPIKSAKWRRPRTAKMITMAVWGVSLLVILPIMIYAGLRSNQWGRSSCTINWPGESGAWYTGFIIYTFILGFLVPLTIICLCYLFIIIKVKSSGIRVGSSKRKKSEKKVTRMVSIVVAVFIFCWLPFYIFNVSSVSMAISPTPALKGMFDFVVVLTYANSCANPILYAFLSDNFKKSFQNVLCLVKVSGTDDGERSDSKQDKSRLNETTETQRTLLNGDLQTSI
Method: as §2, §3, §5

[4] = target: T3, hUTII (Homo sapiens, UniProt Q9UKP6); assay: hUTII inhibition constant; format: binding
T3 sequence (Q9UKP6 1-389): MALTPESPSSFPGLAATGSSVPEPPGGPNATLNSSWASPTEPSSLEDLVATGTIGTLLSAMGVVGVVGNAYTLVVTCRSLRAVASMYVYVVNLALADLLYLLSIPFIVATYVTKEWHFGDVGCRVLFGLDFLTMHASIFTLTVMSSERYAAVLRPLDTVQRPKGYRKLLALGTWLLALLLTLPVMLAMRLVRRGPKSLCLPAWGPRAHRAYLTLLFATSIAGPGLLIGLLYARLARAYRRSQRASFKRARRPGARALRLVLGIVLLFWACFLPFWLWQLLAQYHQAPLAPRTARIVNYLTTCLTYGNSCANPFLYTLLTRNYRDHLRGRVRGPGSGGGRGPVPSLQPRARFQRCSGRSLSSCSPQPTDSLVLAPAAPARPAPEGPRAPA
Method: as §1

[5] = target: T4, hsst3 (Homo sapiens, UniProt P32745); assay: Somatostatin receptor radioligand binding assay, hsst3
T4 construct: expressed in transfected cells
T4 sequence (P32745 whole entry): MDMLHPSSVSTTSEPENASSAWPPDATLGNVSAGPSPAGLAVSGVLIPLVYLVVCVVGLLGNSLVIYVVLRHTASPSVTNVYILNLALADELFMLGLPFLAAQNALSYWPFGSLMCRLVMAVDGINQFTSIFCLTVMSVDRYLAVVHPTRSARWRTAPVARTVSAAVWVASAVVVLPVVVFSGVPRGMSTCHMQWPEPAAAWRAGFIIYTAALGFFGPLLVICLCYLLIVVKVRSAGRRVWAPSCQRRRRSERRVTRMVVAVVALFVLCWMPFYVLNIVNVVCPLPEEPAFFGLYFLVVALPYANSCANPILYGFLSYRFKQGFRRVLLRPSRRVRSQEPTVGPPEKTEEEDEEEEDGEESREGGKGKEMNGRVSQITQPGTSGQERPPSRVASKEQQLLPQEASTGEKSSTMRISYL
Method: as §2, §3, §4, §5, §1

[6] = CHO-K1 membranes, [125I-Tyr11]SS-14, read-out: hsst3 Ki

Row | Compound | Ki [1] [nM] | Ki ([2]; read-out: hsst5 Ki) [nM] | Ki ([3]; read-out: hsst2 Ki) [nM] | Ki ([4]; read-out: hUTII Ki) [nM] | Ki [5, 6] [nM] | Ki ([3]; hsst2 Ki) [nM] | Ki ([4]; hUTII Ki) [nM] | Ki [5] [nM] | Ki ([2]; hsst5 Ki) [nM]
1 | CCCN1C[C@H](CSCC(=O)NCCCC[C@@H](NC(=O)CSC[C@@H]2C[C@@H]3c4cccc5[nH]cc(c45)C[C@H]3N(CCC)C2)C(=O)N[C@H](Cc2ccccc2)C(=O)N[C@H]2CSSC[C@@H](C(=O)N[C@H](C(N)=O)[C@@H](C)O)NC(=O)[C@H]([C@@H](C)O)NC(=O)[C@H](CCCCN)NC(=O)[C@@H](Cc3c[nH]c4ccccc34)NC(=O)[C@H](Cc3ccc(O)c(I)c3)NC2=O)C[C@@H]2c3cccc4[nH]cc(c34)C[C@H]21 [Example 15] | 18.3 | 6.29 |  |  |  |  |  |  | 
2 | CCCN1C[C@H](CSCC(=O)NCCCC[C@@H](NC(=O)CSC[C@@H]2C[C@@H]3c4cccc5[nH]cc(c45)C[C@H]3N(CCC)C2)C(=O)N[C@H](Cc2ccc(O)cc2)C(=O)N[C@H](Cc2ccc(O)cc2)C(=O)N[C@H]2CSSC[C@@H](C(=O)N[C@H](C(N)=O)[C@@H](C)O)NC(=O)[C@H]([C@@H](C)O)NC(=O)[C@H](CCCCN)NC(=O)[C@@H](Cc3c[nH]c4ccccc34)NC(=O)[C@H](Cc3ccc(O)c(I)c3)NC2=O)C[C@@H]2c3cccc4[nH]cc(c34)C[C@H]21 [Example 16] (X1-[dK](X1)[dY][dY]C[Tyr(3-I)][dW]KTCT-NH2; disulfide 4-9) | 8.56 | 7.43 | 0.16 | 549 | 76.4 |  |  |  | 
3 | CCCN1C[C@H](CSCC(=O)NCCCC[C@H](NC(=O)CSC[C@@H]2C[C@@H]3c4cccc5[nH]cc(c45)C[C@H]3N(CCC)C2)C(=O)N[C@H](Cc2ccccc2)C(=O)N[C@H]2CSSC[C@@H](C(=O)N[C@H](C(N)=O)[C@@H](C)O)NC(=O)[C@H](CC)NC(=O)[C@H](CCCCN)NC(=O)[C@@H](Cc3c[nH]c4ccccc34)NC(=O)[C@H](Cc3ccc(O)cc3)NC2=O)C[C@@H]2c3cccc4[nH]cc(c34)C[C@H]21 [Example 17] | 17.6 | 54 | 0.18 | 496 | 106 |  |  |  | 
4 | CC[C@@H]1NC(=O)[C@H](CCCCN)NC(=O)[C@@H](Cc2c[nH]c3ccccc23)NC(=O)[C@H](Cc2ccc(O)cc2)NC(=O)[C@@H](NC(=O)[C@@H](Cc2ccccc2)NC(=O)[C@H](CCCCNC(=O)[C@@H](N)Cc2ccc(O)c(O)c2)NC(=O)[C@@H](N)Cc2ccc(O)c(O)c2)CSSC[C@@H](C(=O)N[C@H](C(N)=O)[C@@H](C)O)NC1=O [Example 18] (H-[Dopa]K(Dopa)[dF]CY[dW]K[Abu]CT-NH2; disulfide 4-9) | 3000 | 32 | 0.36 | 1000 | 167 |  |  |  | 
5 | CC[C@@H]1NC(=O)[C@H](CCCCN)NC(=O)[C@@H](Cc2c[nH]c3ccccc23)NC(=O)[C@H](Cc2ccc(O)cc2)NC(=O)[C@@H](NC(=O)[C@@H](Cc2ccccc2)NC(=O)[C@@H](N)Cc2ccc(O)c(O)c2)CSSC[C@@H](C(=O)N[C@H](C(N)=O)[C@@H](C)O)NC1=O [Example 19] | 3000 | 19.7 | 0.41 | 2250 | 146 |  |  |  | 
6 | CC[C@@H]1NC(=O)[C@H](CCCCN)NC(=O)[C@@H](Cc2c[nH]c3ccccc23)NC(=O)[C@H](Cc2ccc(O)cc2)NC(=O)[C@@H](NC(=O)[C@@H](Cc2ccccc2)NC(=O)CN(C)C(=O)N[C@H]2C[C@@H]3c4cccc5[nH]cc(c45)C[C@H]3N(C)C2)CSSC[C@@H](C(=O)N[C@H](C(N)=O)[C@@H](C)O)NC1=O [Example 20] | 95.2 |  |  |  |  |  |  |  | 
7 | CC[C@@H]1NC(=O)[C@H](CCCCN)NC(=O)[C@@H](Cc2c[nH]c3ccccc23)NC(=O)[C@H](Cc2ccc(O)cc2)NC(=O)[C@@H](NC(=O)[C@@H](Cc2ccccc2)NC(=O)CN(C)C(=O)N[C@H]2C[C@@H]3c4cccc5[nH]cc(c45)C[C@H]3N(C)C2)CSSC[C@@H](C(=O)N[C@H](C(N)=O)[C@@H](C)O)NC1=O [Example 27] |  |  |  |  |  | 0.02 | 1280 | 140 | 22.8
8 | CCCN1C[C@H](CNC(=O)CCCC(=O)N[C@H](Cc2ccccc2)C(=O)N[C@H]2CSSC[C@@H](C(=O)N[C@H](C(N)=O)[C@@H](C)O)NC(=O)[C@H](CC)NC(=O)[C@H](CCCCN)NC(=O)[C@@H](Cc3c[nH]c4ccccc34)NC(=O)[C@H](Cc3ccc(O)cc3)NC2=O)C[C@@H]2c3cccc4[nH]cc(c34)C[C@H]21 [Example 29] | 226 |  | 0.14 |  |  |  |  |  | 
9 | CCCN1C[C@H](CSCC(=O)NCCN2CCN(CC(=O)NCCN3CCN(CC(=O)N[C@H](Cc4ccccc4)C(=O)N[C@H]4CSSC[C@@H](C(=O)N[C@H](C(N)=O)[C@@H](C)O)NC(=O)[C@H](C(C)C)NC(=O)[C@H](CCCCN)NC(=O)[C@@H](Cc5c[nH]c6ccccc56)NC(=O)[C@H](Cc5ccc(O)c(I)c5)NC4=O)CC3)CC2)C[C@@H]2c3cccc4[nH]cc(c34)C[C@H]21 [Example 37] | 126 |  | 1.26 | 421 | 374 |  |  |  | 
10 | CC(C)[C@@H]1NC(=O)[C@H](CCCCN)NC(=O)[C@@H](Cc2c[nH]c3ccccc23)NC(=O)[C@H](Cc2ccc(O)c(I)c2)NC(=O)[C@@H](NC(=O)[C@@H](Cc2ccccc2)NC(=O)CN2CCN(CCNC(=O)CN3CCN(CCNC(=O)CSC[C@@H]4C[C@@H]5c6cccc7[nH]cc(c67)C[C@H]5N(C)C4)CC3)CC2)CSSC[C@@H](C(=O)N[C@H](C(N)=O)[C@@H](C)O)NC1=O [Example 39] | 310 |  | 0.42 | 241 |  |  |  | 136 | 
11 | CC(C)[C@@H]1NC(=O)[C@H](CCCCN)NC(=O)[C@@H](Cc2c[nH]c3ccccc23)NC(=O)[C@H](Cc2ccc(O)c(I)c2)NC(=O)[C@@H](NC(=O)[C@@H](Cc2ccccc2)NC(=O)COCCOCCNC(=O)CSC[C@@H]2C[C@@H]3c4cccc5[nH]cc(c45)C[C@H]3N(C)C2)CSSC[C@@H](C(=O)N[C@H](C(N)=O)[C@@H](C)O)NC1=O [Example 41] | 217 |  |  |  |  |  |  |  | 
